From patent US10793557B2, “Sting agonist compounds” (Merck Sharp & Dohme Corp., priority 2018, dated 2020)

Legend:
[1] = target: T1, full-length WT STING (Homo sapiens, UniProt Q86WV6, H232R); test: 3H-cGAMP filtration binding assay (WT STING); conditions: for inhibition at 20 µM: at 20,000 nM compound; for EC50: competition with tritiated cGAMP, WT STING membrane
T1 construct: AviTag (after gg linker) (C); HRV3C cleavage site (after gs linker) (C); HIS8 (C); made in house; host or cells: Trichoplusia ni (Hi-Five) insect cells infected with baculovirus (virus generated and amplified in Sf21 cells); used as a washed membrane preparation
Method in brief: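 Competitive filtration binding of [3H]cGAMP (16 nM working stock) to T. ni membranes overexpressing full-length WT human STING, 60 min at RT in PBS. Bound radioactivity counted after GF/B filtration; 10-point 1:3 titration, EC50 from 4-parameter fit after control normalisation.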

[2] = target: T2, full-length HAQ STING (Homo sapiens, UniProt Q86WV6, G230A/H232R/R293Q/R71H); test: 3H-cGAMP filtration binding assay (HAQ STING); conditions: for EC50: competition with tritiated cGAMP, HAQ STING membrane
T2 construct: AviTag (after GG linker) (C); HRV3C cleavage site (after GS linker) (C); HIS8 (C); made in house; host or cells: Trichoplusia ni (Hi-Five) insect cells infected with baculovirus (virus generated and amplified in Sf21 cells); used as a washed membrane preparation
Method in brief: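 Hi-Five (T. ni) membranes overexpressing the STING variant (2.2 ug/ml working) preincubated with compound 60 min at RT in PBS, then [3H]cGAMP (8 nM working stock) added for 60 min at RT. Bound radioactivity captured on GF/B filters and counted by scintillation; EC50 from 4-parameter fit of control-normalized activity.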

[3] = test system: secretion of interferon-beta from THP1 cells; test: IFN-β secretion in THP1 cell culture (5 h); assay type: cell-based; conditions: Homo sapiens, THP-1, 5 h, 30 uM cGAMP = 100%; for activation at 30 µM: compound at 30 μM, read-out: % Effect at 30 μM relative to 2′3′-cGAMP; for activation at 3 µM: compound at 3 uM, read-out: % Effect relative to 2′3′-cGAMP (@ 3 uM)
Method in brief: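 Thawed THP1 cells (0.8×10^6/mL, RPMI with 0.5% FBS) exposed to compounds 1.5–30000 nM (0.3% DMSO) for 5 h at 37 °C. Supernatant IFN-β quantified by AlphaLISA. Percent effect normalised to 30 uM cGAMP and DMSO controls; EC50 from 4-parameter fit.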

T1 sequence (Q86WV6 with tags, fused parts or gaps H232R): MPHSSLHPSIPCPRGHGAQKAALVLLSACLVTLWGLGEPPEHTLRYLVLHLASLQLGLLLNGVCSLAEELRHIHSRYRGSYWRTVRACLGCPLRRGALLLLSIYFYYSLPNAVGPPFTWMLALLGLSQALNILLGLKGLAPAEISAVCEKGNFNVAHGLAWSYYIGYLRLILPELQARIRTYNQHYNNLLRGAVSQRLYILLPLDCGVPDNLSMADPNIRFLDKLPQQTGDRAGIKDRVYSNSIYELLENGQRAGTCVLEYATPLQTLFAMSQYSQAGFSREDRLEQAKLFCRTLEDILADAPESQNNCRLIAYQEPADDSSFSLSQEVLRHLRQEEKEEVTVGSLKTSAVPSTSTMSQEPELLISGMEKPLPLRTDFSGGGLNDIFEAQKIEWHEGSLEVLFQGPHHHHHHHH
T2 sequence (Q86WV6 with tags, fused parts or gaps R71H/G230A/H232R/R293Q): as the sequence (Q86WV6 with tags, fused parts or gaps H232R) above, with R71H, G230A, R293Q counted along it

| Structure (SMILES) | inhibition at 20 µM [1] | EC50 [2] | activation at 30 µM [3] | EC50 [1] | activation at 3 µM [3] | inhibition at 2 µM ([1]; at 2,000 nM compound) | inhibition at 2 µM ([2]; at 2,000 nM compound) |
| --- | --- | --- | --- | --- | --- | --- | --- |
| COc1cc2sc(C(=O)C[C@H](C)C(=O)O)cc2c(F)c1OCCCCCOc1c(OC)cc2sc(C(=O)[C@@H]3CC[C@H]3C(=O)O)cc2c1F [Example 121, trans-2-(5-((5-((2-((S)-3-carboxybutanoyl)-4-fluoro-6-methoxybenzo[b]thiophen-5-yl)oxy)pentyl)oxy)-4-fluoro-6-methoxybenzo[b]thiophene-2-carbonyl)cyclobutane carboxylic acid] | 43% | 1550 nM | 26% |  |  |  |  |
| COc1cc2sc(C(=O)[C@H]3C[C@@H]3C(=O)O)cc2c(F)c1OCCCOc1c(OC)cc2sc(C(=O)[C@@H]3C[C@H]3C(=O)O)cc2c1F [Example 87, trans-2-(5-(3-((2-((1R,2R)-2-carboxycyclopropanecarbony)-4-fluoro-6-methoxybenzo[b]thiophen-5-yl)oxy)propoxy)-4-fluoro-6-methoxybenzo[b]thiophene-2-carbonyl)cyclopropane carboxylic acid] |  | 167 nM | 120% | 1920 nM |  |  |  |
| COc1cc2sc(C(=O)C[C@H](C)C(=O)O)cc2c(F)c1OCCCOc1c(OC)c(Cl)c2sc(C(=O)C[C@H](C)C(=O)O)cc2c1Cl [Example 137, (S)-4-(5-(3-((2-((S)-3-carboxybutanoyl)-4,7-dichloro-6-methoxybenzo[b]thiophen-5-yl)oxy)propoxy)-4-fluoro-6-methoxybenzo[b]thiophen-2-yl)-2-methyl-4-oxobutanoic acid] |  | 40 nM | 155% | 319 nM |  |  |  |
| COc1cc2sc(C(=O)CCC(=O)O)cc2nc1CCCOc1c(OC)cc2sc(C(=O)CCC(=O)O)cc2c1F [Example 173] |  | 1 nM | 127% | 3 nM |  |  |  |
| Cc1cc2sc(C(=O)CCC(=O)O)cc2cc1CCCc1cc2cc(C(=O)CCC(=O)O)sc2cc1C [Example 28, 4,4′-(propane-1,3-diylbis(6-methylbenzo[b]thiophene-5,2-diyl))bis(4-oxobutanoic acid)] |  | 46 nM | 116% | 112 nM |  |  |  |
| COc1cc2sc(C(=O)CCC(=O)O)cc2cc1OCCCOc1cc2sc(C(=O)CCC(=O)O)cc2cc1OC [Example 126, 4-(5-(3-((2-(3-carboxypropanoyl)-5-methoxybenzo[b]thiophen-6-yl)oxy)propoxy)-6-methoxybenzo[b]thiophen-2-yl)-4-oxobutanoic acid] |  | 2 nM | 91% | 19 nM |  |  |  |
| COc1cc2sc(C(=O)C[C@H](C)C(=O)O)cc2c(Cl)c1OCCCCOc1c(OC)cc2sc(C(=O)C[C@H](C)C(=O)O)cc2c1Cl [Example 172, (2S,2′S)-4,4′-(5,5′-(butane-1,4-diylbis(oxy))bis(4-chloro-6-methoxybenzo[b]thiophene-5,2-diyl))bis(2-methyl-4-oxobutanoic acid)] |  | 454 nM |  | 15100 nM | 16% |  |  |
| COc1cc2sc(C(=O)CCC#N)cc2cc1CCCc1cc2cc(C(=O)CCC#N)sc2cc1OC [Example 175, 4,4′-(Propane-1,3-diylbis(6-methoxybenzo[b]thiophene-5,2-diyl))bis(4-oxobutanenitrile)] | 46% | 4020 nM | 13% |  |  |  |  |
| COc1cc2sc(C(=O)C[C@H](C)C(=O)O)cc2cc1OCCCOc1c(OC)cc2sc(C(=O)C[C@H](C)C(=O)O)cc2c1F [Example 69, (S)-4-(5-(3-((2-((S)-3-carboxybutanoyl)-4-fluoro-6-methoxybenzo[b]thiophen-5-yl)oxy)propoxy)-6-methoxybenzo[b]thiophen-2-yl)-2-methyl-4-oxobutanoic acid] |  | 1 nM | 46% | 2 nM |  |  |  |
| COc1cc2sc(C(=O)C[C@H](C)C(=O)O)cc2cc1OCCCOc1c(OC)cc2sc(C(=O)CC(C)(C)C(=O)O)cc2c1F [Example 71, (S)-4-(5-(3-((2-(3-carboxybutanoyl)-6-methoxybenzo[b]thiophen-5-yl)oxy)propoxy)-4-fluoro-6-methoxybenzo[b]thiophen-2-yl)-2,2-dimethyl-4-oxobutanoic acid] |  | 3 nM | 15% | 2 nM |  |  |  |
| COc1cc2cc(C(=O)C[C@H](C)C(=O)O)sc2cc1OCCCc1nc2c(o1)c(OC)cc1sc(C(=O)C[C@H](C)C(=O)O)cc12 [Example 40, (S)-4-(6-(3-(7-((S)-3-carboxybutanoyl)-4-methoxythieno[2′,3′:5,6]benzo[1,2-d]oxazol-2-yl)propoxy)-5-methoxybenzo [b]thiophen-2-yl)-2-methyl-4-oxobutanoic acid] |  | 86 nM | 27% | 1360 nM |  |  |  |
| COc1cc2sc(C(=O)C[C@H](C)C(=O)O)cc2cc1OCCCOc1c(OC)cc2sc(C(=O)[C@@H]3CC[C@H]3C(=O)O)cc2c1F [Example 170, trans-2-(5-(3-((2-((S)-3-carboxybutanoyl)-6-methoxybenzo[b]thiophen-5-yl)oxy)propoxy)-4-fluoro-6-methoxybenzo[b]thiophene-2-carbonyl)cyclobutanecarboxylic acid] |  | 1 nM | 86% | 3 nM |  |  |  |
| COc1cc2sc(C(=O)C[C@H](C)C(=O)O)cc2c(F)c1OCCCOc1c(OC)cc2sc(C(=O)C[C@H](C)C(=O)O)cc2c1F [Example 156, (2S,2′S)-4,4′-((propane-1,3-diylbis(oxy))bis(4-fluoro-6-methoxybenzo[b]thiophene-5,2-diyl))bis(2-methyl-4-oxobutanoic acid)] |  | 1 nM |  | 1 nM | 118% |  |  |
| COc1cc2cc(C(=O)C[C@H](C)C(=O)O)sc2cc1OCCCOc1cc2sc(C(=O)C[C@H](C)C(=O)O)cc2cc1OC [Example 47, (2S,2′S)-4,4′-((propane-1,3-diylbis(oxy))bis(5-methoxybenzo[b]thiophene-6,2-diyl))bis(2-methyl-4-oxobutanoic acid)] |  | 14 nM | 62% | 81 nM |  |  |  |
| COc1cc2sc(C(=O)CCC(=O)O)cc2cc1CCCc1nc2cc(C(=O)CCC(=O)O)sc2cc1OC [Example 29, 4-(5-(3-(2-(3-carboxypropanoyl)-6-methoxybenzo [b]thiophen-5-yl)propyl)-6-methoxythieno[3,2-b]pyridin-2-yl)-4-oxobutanoic acid] |  | 8 nM | 107% | 44 nM |  |  |  |
| COc1cc2sc(C(=O)C[C@H](C)C(=O)O)cc2cc1OCCCc1c(OC)cc2sc(C(=O)C[C@H](C)C(=O)O)cc2c1F [Example 162, (S)-4-(5-(3-(2-((S)-3-carboxybutanoyl)-4-fluoro-6-methoxybenzo[b]thiophen-5-yl)propoxy)-6-methoxybenzo[b]thiophen-2-yl)-2-methyl-4-oxobutanoic acid] |  | 1 nM | 98% | 4 nM |  |  |  |
| COc1cc2sc(C(=O)[C@H]3C[C@@H]3C(=O)O)cc2cc1OCCCOc1cc2cc(C(=O)[C@@H]3C[C@H]3C(=O)O)sc2cc1OC [Example 80, rac-(1S,2S)-2-(5-(3-((2-((1R, 2R)-2-carboxy-cyclopropane-1-carbonyl)-6-methoxybenzo[b]thiophen-5-yl)oxy)propoxy)-6-methoxybenzo[b]thiophene-2-carbonyl)cyclopropane-1-carboxylic acid] |  | 1300 nM | 12% | 12700 nM |  |  |  |
| COc1cc2sc(CC[C@H](C)C(=O)O)cc2c(Cl)c1OCCCOc1c(OC)cc2sc(C(=O)C[C@H](C)C(=O)O)cc2c1Cl [Example 152, (S)-4-(5-(3-((2-((S)-3-carboxybutyl)-4-chloro-6-methoxybenzo[b]thiophen-5-yl)oxy)propoxy)-4-chloro-6-methoxybenzo[b]thiophen-2-yl)-2-methyl-4-oxobutanoic acid] |  |  |  |  | 7% | 3% | 35% |
| COc1cc2cc(C(=O)C[C@H](C)C(=O)O)sc2cc1OCCCOc1ccc2sc(C(=O)CCC(=O)O)cc2c1 [Example 46, (S)-4-(6-(3-((2-(3-carboxypropanoyl)benzo[b]thiophen-5-yl)oxy)propoxy)-5-methoxybenzo[b]thiophen-2-yl)-2-methyl-4-oxobutanoic acid] |  | 133 nM | 60% | 394 nM |  |  |  |
| COc1cc2sc(C(=O)C[C@H](C)C(=O)O)cc2c(F)c1OCCCOc1cc2sc(C(=O)C[C@H](C)C(=O)O)cc2nc1OC [Example 167, (S)-4-(6-(3-((2-((S)-3-carboxybutanoyl)-4-fluoro-6-methoxybenzo[b]thiophen-5-yl)oxy)propoxy)-5-methoxythieno[3,2-b]pyridin-2-yl)-2-methyl-4-oxobutanoic acid] |  | 4 nM | 66% | 19 nM |  |  |  |
